Publication PMC9220178, “Preclinical Characterization of Antioxidant Quinolyl Nitrone QN23 as a New Candidate for the Treatment of Ischemic Stroke” (Antioxidants, 2022)

What was measured:
[1] = test system: primary neuronal cultures subjected to OGD; set-up: method as in PMID 30715875; conditions: cited from earlier work
[2] = test system: adult male Wistar rats, four-vessel occlusion (4VO) transient forebrain ischemia; experiment: Neuronal death by Fluoro-Jade B staining after transient global cerebral ischemia (4VO); assay type: in vivo, rat; conditions: for Neuroprotection (neuronal death, Fluoro-Jade B): vehicle = 0%
Procedure: (§1) Transient forebrain ischemia was induced in adult male Wistar rats (10–12 weeks, Charles River, L’Arbresle, France) by the standard four-vessel occlusion (4VO) model previously described. Briefly, animals were anesthetized by intraperitoneal injection of a combination of ketamine, diazepam, and atropine (62.5, 5.0, and 0.25 mg/kg, respectively); positioned in a stereotactic device; and both vertebral arteries were cauterized. The next day, anesthesia was induced with 4% isoflurane and maintained at 2–2.5% isoflurane for carotid artery dissection. After anesthesia withdrawal, the carotid arteries were occluded with an atraumatic vascular clamp to induce brain ischemia. During the entire surgical procedure, temperature was monitored at 2 min intervals and kept at 37 °C. After 15 min of ischemia, the carotid arteries were unclamped for brain reperfusion. The animals were studied after 5 days of reperfusion (R5d), or after 11 weeks of reperfusion (long-term studies), and then they were euthanized under deep anesthesia. Animals from the sham control group were handled in the same way, but without occlusion of the carotid arteries. Ischemic animals were treated with vehicle solution (ethanol/polyethylene glycol 400/saline, 1:300:200 v/v), or with nitrones QN23 or NXY-059 in vehicle solution, as a single injection through the tail vein at the onset of reperfusion. For the therapeutic window experiments, the animals were also treated at reperfusion times 1, 3, and 6 h after ischemia. The treatments were prepared by an independent researcher and administered with concealed allocation. Treatments were administered in a randomized order obtained by a computer-based randomization program. To determine the sample size, a power analysis (http://www.biomath.info/power/ttest.htm, accessed on 12 March 2020) with significance level set at 0.05 and statistical power set at 0.8 (80%) rendered a sample size of <6 subjects per group. A total of 120 ischemic animals (30 animals treated with vehicle, 60 treated with QN23, and 30 treated with NXY-059) and 9 sham control animals were included in these studies. Additionally, 13 animals were excluded from the study: 6 animals were not ischemic and 7 animals died within the 24 h after the surgical procedure (5 vehicles, 1 QN23-treated at 1.0 mg/kg, and 1 QN23-treated at 2.0 mg/kg). The Animal Care Ethics Committee of the Hospital Universitario Ramón y Cajal (Madrid, Spain) authorized all the procedures involving the animal experimentation reported here (authorization number 04/2020). These experiments were performed according to ARRIVE guidelines and the legislation on the protection of animals used for scientific purposes in Spain (RD 53/2013) and the EU (Directive 2010/63/EU). The study was designed and conducted according to the STAIR guidelines regarding physiological monitoring, sample randomization, predefined exclusion criteria, allocation concealment, blinded assessment of outcomes, dose–response definition, and a conflict-of-interest statement.
(§2) After 5 days of reperfusion (R5d), or at 11 weeks of reperfusion in long-term studies, animals were euthanized by transcardiac perfusion via the left ventricle under deep anesthesia. First, blood was washed out with 200 mL of ice-cold saline medium, followed by fixation with 4% (w/v) paraformaldehyde solution in PBS for brain preservation. Then, the brains were carefully removed from the cranial cavity and placed in 4% (w/v) paraformaldehyde solution in PBS overnight at 4 °C. The next day, the brains were sequentially placed in 10%, 20%, and 30% (w/v) sucrose in PBS until sunken, and finally embedded in Tissue-Tek O.C.T. (Sakura Finetek, Torrance, CA, USA) before freezing at −80 °C. Brain coronal sections containing the hippocampus region were obtained by cryostat sectioning at the level of interaural line +5.7 ± 0.2 mm on Real Capillary Gap microscope slides (Agilent Dako, Santa Clara, CA, USA). […]

[3] = test system: adult male Wistar rats, four-vessel occlusion (4VO) transient forebrain ischemia; experiment: Neuronal apoptosis by TUNEL assay after transient global cerebral ischemia (4VO); assay type: in vivo, rat; conditions: for Neuroprotection (neuronal apoptosis, TUNEL): vehicle = 0%
Procedure: as §1, §2

[4] = test system: adult male Wistar rats, four-vessel occlusion (4VO) transient forebrain ischemia; experiment: Long-term neuronal viability by S6 protein immunostaining, hippocampal CA1; assay type: in vivo, rat; conditions: 2.0 mg/kg i.v. at reperfusion onset; 11 weeks of reperfusion
Procedure: Transient forebrain ischemia was induced in adult male Wistar rats (10–12 weeks, Charles River, L’Arbresle, France) by the standard four-vessel occlusion (4VO) model previously described. Briefly, animals were anesthetized by intraperitoneal injection of a combination of ketamine, diazepam, and atropine (62.5, 5.0, and 0.25 mg/kg, respectively); positioned in a stereotactic device; and both vertebral arteries were cauterized. The next day, anesthesia was induced with 4% isoflurane and maintained at 2–2.5% isoflurane for carotid artery dissection. After anesthesia withdrawal, the carotid arteries were occluded with an atraumatic vascular clamp to induce brain ischemia. During the entire surgical procedure, temperature was monitored at 2 min intervals and kept at 37 °C. After 15 min of ischemia, the carotid arteries were unclamped for brain reperfusion. The animals were studied after 5 days of reperfusion (R5d), or after 11 weeks of reperfusion (long-term studies), and then they were euthanized under deep anesthesia. Animals from the sham control group were handled in the same way, but without occlusion of the carotid arteries. Ischemic animals were treated with vehicle solution (ethanol/polyethylene glycol 400/saline, 1:300:200 v/v), or with nitrones QN23 or NXY-059 in vehicle solution, as a single injection through the tail vein at the onset of reperfusion. […]

[5] = test system: Wistar male rats subjected to global cerebral ischemia; experiment: Imaging of cerebral ROS with dihydroethidium (DHE) in brain ischemia; assay type: in vivo, rat; conditions: 2.0 mg/kg i.v. at reperfusion onset; CA1 and cortical regions; 6 h of reperfusion
Procedure: In order to evaluate the antioxidant capacity of QN23 in vivo, the fluorescent probe dihydroethidium (DHE) was used for superoxide and hydrogen peroxide detection according to the experimental procedure described in [29], with minor modifications. Animals subjected to global cerebral ischemia (Wistar male rats of 280–300 g) were treated with vehicle or QN23 at the onset of the reperfusion period, and after 2 h of reperfusion DHE (3.0 mg/kg; 0.9 mg/mL in DMSO/polyethylene glycol 400/saline, 2.5:50:47.5 v/v) was intravenously injected (1 mL). DHE (Sigma-Aldrich, Merck KGaA, Darmstadt, Germany) was freshly weighted and dissolved just before the injection to avoid undesired air-driven oxidation. At 6 h of reperfusion after ischemia (4 h after DHE injection), the animals were euthanized and perfused with saline and 4% (w/v) paraformaldehyde in PBS. […]
Hippocampal CA1 subfields and cortical fields from a given brain section were randomly selected and analyzed with fluorescence microscopy (20× objective), and the selected images (425 × 340 μm) were digitized with a color CCD camera (1280 × 1024 pixel resolution). Fluorescence intensity (in red) of ROS-reacted DHE was evaluated and normalized to the number of DAPI-stained nuclei by using an image analysis software (Image-J 1.53). At least four images per brain sample, and 3 to 6 brains per experimental group, were evaluated and averaged. […]

[6] = applied at onset of recovery period after OGD
[7] = 2.0 mg/kg i.v., CA1 and cortical regions, R5d, times tested 0, 1, 3, 6 h
[8] = cerebral cortex, 2.0 mg/kg i.v. at reperfusion onset, R5d
[9] = either CA1 or cortical region, i.v., from dose-response curve

For `COc1ccc2nc(Cl)c(/C=[N+](\[O-])C(C)(C)C)cc2c1` [QN23, (Z)-N-tert-Butyl-1-(2-chloro-6-methoxyquinolin-3-yl)methanimine Oxide], the “Most effective concentration for neuroprotection” value [1, 6] is listed as 100 µM, the “Optimal range of concentration for neuroprotection” value [1, 6] is listed as 0.3 to 250 µM and the “ROS and lipid peroxidation levels” value ([1]; primary neuronal cultures subjected to OGD) is listed as “decreased”. For the same compound, the “Therapeutic window: injection time after reperfusion onset with significantly decreased neuronal death” value [2, 7] was “up to 3 h”, the “Neuroprotection (neuronal death, Fluoro-Jade B)” value ([2]; cerebral cortex, 1.5 mg/kg i.v. at reperfusion onset, R5d) was 89.2% and the “Neuronal death compared with vehicle” value [2, 8] was “significantly reduced”. The “Neuroprotection (neuronal death, Fluoro-Jade B)” value [2, 8] was 89.5%, the “EC50 of neuroprotection, neuronal death assay” value [2, 9] was 0.3 mg/kg and the “Neuroprotection (neuronal death, Fluoro-Jade B)” value ([2]; hippocampal CA1, 1.5 mg/kg i.v. at reperfusion onset, R5d) was 22.6%. The “Neuroprotection (neuronal death, Fluoro-Jade B)” value ([2]; hippocampal CA1, 2.0 mg/kg i.v. at reperfusion onset, R5d) was 23.8%, the “Neuronal death compared with vehicle” value ([2]; hippocampal CA1, 2.0 or 2.5 mg/kg i.v. at reperfusion onset, R5d) was “significantly reduced” and the “Therapeutic window: injection time after reperfusion onset with significantly reduced apoptosis-positive cells” value [3, 7] was “up to 3 h”. For the same compound, the “Neuroprotection (neuronal apoptosis, TUNEL)” value ([3]; CA1, 1.5 mg/kg i.v. at reperfusion onset, R5d) was 16.2%, the “Neuroprotection (neuronal apoptosis, TUNEL)” value ([3]; CA1, 2.0 mg/kg i.v. at reperfusion onset, R5d) was 27.8% and the “Number of apoptotic cells compared with vehicle” value ([3]; CA1 and cortical regions, 2.0 and 2.5 mg/kg i.v. at reperfusion onset, R5d) was “significant decrease”. The “Neuroprotection (neuronal apoptosis, TUNEL)” value ([3]; cortical region, 1.5 mg/kg i.v. at reperfusion onset, R5d) was 85.0%, the “Neuroprotection (neuronal apoptosis, TUNEL)” value ([3]; cortical region, 2.0 mg/kg i.v. at reperfusion onset, R5d) was 88.0% and the “EC50 of neuroprotection, TUNEL assay” value [3, 9] was 0.3 mg/kg. For the same compound, the “S6-positive cells (viable neurons) in hippocampal CA1” value [4] was “preserved a large number of viable neurons” and the “Fluorescence intensity of ROS-reacted DHE compared with vehicle” value [5] was “decreased significantly”.
